Measured values: patent US20100028878A1, “Modulators of UDP-glucose ceramide glucosyltransferase for treating acne or hyperkeratinization” (GALDERMA RESEARCH & DEVELOPMENT, priority 2006, published 2010)

System: mRNA for UGCG in the mouse preputial gland
Conditions: gonadectomized male mice, medium-term treatment, effect visible at 96 hours
Procedure: The expression of the genes was analyzed on an Affymetrix station (microfluidic model; hybridization oven; scanner; computer) following the protocols provided by the company. Briefly, the total RNA isolated from the tissues is transcribed to cDNA. From the double-stranded cDNA, a cRNA labeled with biotin is synthesized using T7 polymerase and a precursor NTP conjugated to biotin. The cRNAs are then fragmented to small sized fragments. All the molecular biology steps are checked using the Agilent “Lab on a chip” system in order to confirm the good efficiencies of the enzymatic reactions. The Affymetrix chip is hybridized with the biotinylated cRNA, rinsed and then fluorescence labeled using a fluorophore conjugated to streptavidin. After washings, the chip is scanned and the results are calculated using the MAS5 software provided by Affymetrix. An expression value is obtained for each gene as well as the indication of the significance of the value obtained.
B. Male mice were gonadectomized and treated with the vehicle or DHT. The preputial glands were removed for a period ranging up to 4 days (androgenic treatment alone—observation of a short-term kinetics). The RNA was isolated and the expression of the genes was analyzed by the Affymetrix technique.

C[C@]12CCC(=O)C[C@@H]1CC[C@@H]1[C@@H]2CC[C@]2(C)[C@@H](O)CC[C@@H]12 [DHT, Dihydrotestosterone]
mRNA for UGCG in the mouse preputial gland: reduced
